Reference: the NIST ThermoML archive (doi:10.1016/j.jct.2013.09.039)

Assay: xn = mol fraction of the nth substance listed
Conditions: Liquid, Vibrating tube method

Cc1ccc(C)cc1 [1,4-dimethylbenzene] + CCCCCCCC
mass density [kg/m3]
Conditions | 100 kPa | 5000 kPa | 10000 kPa | 20000 kPa | 30000 kPa | 40000 kPa
288.15 K, x2 = 0.0509 | 854.9 | 858.3 | 861.8 | 868.3 | 874.2 | 880
288.15 K, x2 = 0.0993 | 845.1 | 849 | 852.5 | 858.8 | 864.8 | 870.6
288.15 K, x2 = 0.1981 | 826.4 | 830.2 | 833.7 | 840.4 | 846.4 | 852.2
288.15 K, x2 = 0.2961 | 808.8 | 812.6 | 816.2 | 822.9 | 829 | 834.9
288.15 K, x2 = 0.3989 | 791.4 | 795.2 | 798.9 | 805.6 | 811.9 | 817.8
288.15 K, x2 = 0.4891 | 776.6 | 780.8 | 784.6 | 791.3 | 797.8 | 803.8
288.15 K, x2 = 0.5473 | 768.3 | 772 | 775.7 | 782.7 | 789.1 | 795.1
288.15 K, x2 = 0.6039 | 760.1 | 763.5 | 767.2 | 774.2 | 780.5 | 786.5
288.15 K, x2 = 0.8031 | 731.5 | 735.9 | 739.8 | 746.9 | 753.3 | 759.8
288.15 K, x2 = 0.8963 | 719.7 | 723.8 | 727.5 | 734.8 | 741.1 | 747.2
288.15 K, x2 = 0.946 | 712.7 | 716.7 | 720.8 | 727.6 | 734.2 | 740.3
298.15 K, x2 = 0.0509 | 846.1 | 850.4 | 853.4 | – | – | –
298.15 K, x2 = 0.0993 | 836.5 | 840.8 | 844 | – | – | –
298.15 K, x2 = 0.1981 | 817.9 | 822.3 | 825.5 | – | – | –
298.15 K, x2 = 0.2961 | 800.2 | 804.6 | 808 | – | – | –
298.15 K, x2 = 0.3989 | 782.9 | 787.4 | 790.9 | – | – | –
298.15 K, x2 = 0.4891 | 768.7 | 773.3 | 776.6 | – | – | –
298.15 K, x2 = 0.5473 | 760.7 | 764.4 | 768 | – | – | –
298.15 K, x2 = 0.6039 | 752.1 | 755.9 | 759.5 | – | – | –
298.15 K, x2 = 0.8031 | 723.7 | 728.5 | 732.1 | – | – | –
298.15 K, x2 = 0.8963 | 712.2 | 716.5 | 720 | – | – | –
298.15 K, x2 = 0.946 | 704.7 | 709.5 | 713.2 | – | – | –
